What was measured:
Assay type in all cases: cell-based
S1P-2 = target: T1, S1P-2 (Homo sapiens, UniProt O95136); experiment: FLIPR calcium flux assay, S1P-2; settings: agonist activity
T1 construct: expressed in transfected cells; host or cells: CHO cells (G418 selection)
Protocol: (§1) A.2 FLIPR Calcium Flux Assay
(§2) Compounds of the invention are tested for agonist activity on S1P1, S1P3, S1P5, and S1P6 with a FLIPR calcium flux assay. Briefly, CHO cells expressing an S1P receptor are maintained in F-12K medium (ATCC), containing 5% FBS, with 500 ug/ml of G418. Prior to the assay, the cells are plated in 384 black clear bottom plates at the density of 10,000 cells/well/25 µl in the medium of F-12K containing 1% FBS. The second day, the cells are washed three times (25 μl/each) with washing buffer. About 25 μl of dye are added to each well and incubated for 1 hour at 37° C. and 5% CO2. The cells are then washed four times with washing buffer (25 μl/each). The calcium flux is assayed after adding 25 μl of SEW2871 (published by Rosen et al., used as reference) solution to each well of cells. The same assay is performed with cells expressing each of the different S1P receptors. Titration in the FLIPR calcium flux assay is recorded over a 3-minute interval, and quantitated as maximal peak height percentage response relative to S1P-1 activation. The compounds of the invention are active in this assay at a concentration of from 10^−12 and […].

S1P1 = target: T2, S1P1 (Homo sapiens, UniProt P21453); experiment: FLIPR calcium flux assay, CHO cells expressing S1P1; settings: agonist activity; read-out: EC50 for S1P-1
T2 construct: expressed in transfected cells; host or cells: CHO cells (G418 selection)
Protocol: as §1, §2

S1P5 = target: T3, S1P5 (Homo sapiens, UniProt Q9H228); experiment: FLIPR calcium flux assay, CHO cells expressing S1P5; settings: agonist activity; read-out: EC50 for S1P-5
T3 construct: expressed in transfected cells; host or cells: CHO cells (G418 selection)
Protocol: as §1, §2

S1P-4 = target: T4, S1P-4 (Homo sapiens, UniProt O95977); experiment: FLIPR calcium flux assay, S1P-4; settings: agonist activity
T4 construct: expressed in transfected cells; host or cells: CHO cells (G418 selection)
T4 sequence (O95977 1-384): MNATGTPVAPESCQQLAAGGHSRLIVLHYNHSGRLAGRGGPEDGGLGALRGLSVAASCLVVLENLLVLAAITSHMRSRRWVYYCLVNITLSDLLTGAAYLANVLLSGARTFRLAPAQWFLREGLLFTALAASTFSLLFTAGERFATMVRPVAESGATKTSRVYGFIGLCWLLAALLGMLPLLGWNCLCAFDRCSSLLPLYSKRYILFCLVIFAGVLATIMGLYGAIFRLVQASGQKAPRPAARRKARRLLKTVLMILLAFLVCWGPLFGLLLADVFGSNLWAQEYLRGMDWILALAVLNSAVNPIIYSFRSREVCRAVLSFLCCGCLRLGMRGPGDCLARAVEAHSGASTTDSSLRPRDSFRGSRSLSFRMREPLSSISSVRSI

S1P3 = target: T5, S1P3 (Homo sapiens, UniProt Q99500); experiment: FLIPR calcium flux assay, CHO cells expressing S1P3; settings: agonist activity; read-out: EC50 for S1P-3
T5 construct: expressed in transfected cells; host or cells: CHO cells (G418 selection)
Protocol: as §1, §2

T1 sequence (O95136 whole entry): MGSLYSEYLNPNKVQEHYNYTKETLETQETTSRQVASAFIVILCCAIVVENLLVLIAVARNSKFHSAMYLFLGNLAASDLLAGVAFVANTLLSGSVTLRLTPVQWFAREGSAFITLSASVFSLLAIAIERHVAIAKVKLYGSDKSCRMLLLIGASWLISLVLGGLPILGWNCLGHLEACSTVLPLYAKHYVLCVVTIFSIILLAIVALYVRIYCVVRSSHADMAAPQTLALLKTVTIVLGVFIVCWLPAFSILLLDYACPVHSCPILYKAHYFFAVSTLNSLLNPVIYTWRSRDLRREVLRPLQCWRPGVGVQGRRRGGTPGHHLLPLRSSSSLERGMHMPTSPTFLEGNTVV
T2 sequence (P21453 whole entry): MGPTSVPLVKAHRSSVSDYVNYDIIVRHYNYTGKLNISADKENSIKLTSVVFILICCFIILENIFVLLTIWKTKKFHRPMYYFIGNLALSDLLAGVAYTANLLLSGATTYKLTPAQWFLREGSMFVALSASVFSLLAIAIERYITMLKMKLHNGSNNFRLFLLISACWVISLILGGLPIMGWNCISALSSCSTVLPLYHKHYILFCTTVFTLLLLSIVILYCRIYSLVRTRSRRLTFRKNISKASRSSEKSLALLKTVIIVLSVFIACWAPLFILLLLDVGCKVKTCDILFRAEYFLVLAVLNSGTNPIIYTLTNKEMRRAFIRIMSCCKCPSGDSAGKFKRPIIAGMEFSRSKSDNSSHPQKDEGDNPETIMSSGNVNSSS
T3 sequence (Q9H228 whole entry): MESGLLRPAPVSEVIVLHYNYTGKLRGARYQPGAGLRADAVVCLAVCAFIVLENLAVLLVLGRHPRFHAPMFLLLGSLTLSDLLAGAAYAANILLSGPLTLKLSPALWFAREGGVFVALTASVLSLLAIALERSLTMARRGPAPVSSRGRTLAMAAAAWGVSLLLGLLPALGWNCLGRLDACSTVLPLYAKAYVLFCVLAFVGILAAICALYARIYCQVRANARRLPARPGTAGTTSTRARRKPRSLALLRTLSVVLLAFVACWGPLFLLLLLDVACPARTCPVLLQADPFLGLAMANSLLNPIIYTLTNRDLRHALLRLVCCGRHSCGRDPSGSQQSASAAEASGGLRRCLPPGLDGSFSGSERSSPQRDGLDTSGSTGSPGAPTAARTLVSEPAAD
T5 sequence (Q99500 whole entry): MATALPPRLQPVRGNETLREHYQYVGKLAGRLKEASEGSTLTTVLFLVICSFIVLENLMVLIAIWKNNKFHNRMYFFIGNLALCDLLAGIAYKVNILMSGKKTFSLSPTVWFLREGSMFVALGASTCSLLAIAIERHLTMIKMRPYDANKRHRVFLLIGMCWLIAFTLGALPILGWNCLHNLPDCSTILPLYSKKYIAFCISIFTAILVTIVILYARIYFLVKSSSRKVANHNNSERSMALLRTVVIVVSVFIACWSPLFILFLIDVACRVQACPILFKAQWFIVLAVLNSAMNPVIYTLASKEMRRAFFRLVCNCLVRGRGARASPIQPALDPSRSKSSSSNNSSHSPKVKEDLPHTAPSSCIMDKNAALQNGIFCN

EC50 (S1P-2): > 1000 nM
EC50 (S1P1): 8.7 nM
EC50 (S1P5): > 1000 nM
EC50 (S1P-4): > 1000 nM
EC50 (S1P3): > 1000 nM
SMILES: CCCc1c(OC)ccc2cc(C(=O)Nc3ccc(CN)cc3)c(=O)oc12 [Example 1, 7-Methoxy-2-oxo-8-propyl-2H-chromene-3-carboxylic acid (4-aminomethyl-phenyl)-amide]

— US20090318546A1, “Chromen-2-One Derivatives” (NOVARTIS AG, priority 2006, published 2009)
